In the supplement of paper PMC5908809:

Legend:
[1] = test system: normal NK cells expanded with K562-aAPC; test: percent inhibition of viability; higher = more inhibition; conditions: 72 h, IL-2 2.5 ng/mL
Experimental: (§1)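 Drug sensitivity and resistance testing on K562-aAPC-expanded normal NK cells: 5 concentrations (10-fold steps over a 10,000-fold range), 72 h at 37 °C, viability by CellTiter-Glo normalised to DMSO and benzethonium chloride controls; DSS from the fitted curve.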

DERL-7 (IL-2 2.5 ng/mL) [2] = test: as above; conditions: 72 h
IMC-1 (IL-2 20 ng/mL) [3] = test: as above; conditions: 72 h
KAI3 (IL-2 2.5 ng/mL) [4] = test: as above; conditions: 72 h
KHYG-1 (IL-2 2.5 ng/mL) [5] = test: as above; conditions: 72 h
NK-92 (IL-2 2.5 ng/mL) [6] = test: as above; conditions: 72 h
NK-YS (IL-2 2.5 ng/mL) [7] = test: as above; conditions: 72 h
NKL (IL-2 2.5 ng/mL) [8] = test: as above; conditions: 72 h
SNK-6 (IL-2 2.5 ng/mL) [9] = test: as above; conditions: 72 h
YT (IL-2 2.5 ng/mL) [10] = test: as above; conditions: 72 h
[11] = test system: normal primary NK cells, pool 1 (3 donors) (IL-2 2.5 ng/mL); test: as above; conditions: 72 h
[12] = test system: normal primary NK cells, pool 1 (3 donors), resting (IL-2 0 ng/mL); test: as above; conditions: 72 h
[13] = test system: normal primary NK cells, pool 2 (3 donors) (IL-2 2.5 ng/mL); test: as above; conditions: 72 h
[14] = test system: normal primary NK cells, pool 3 (3 donors) (IL-2 2.5 ng/mL); test: as above; conditions: 72 h
[15] = test system: normal NK cells expanded with K562-aAPC; test: drug sensitivity score (DSS) (DSS units); higher = more sensitive; extreme values may be limits of the assay; conditions: 72 h; IL-2 2.5 ng/mL
Experimental: as §1

DERL-7 (IL-2 2.5 ng/mL) [16] = test: as above; conditions: 72 h
IMC-1 (IL-2 20 ng/mL) [17] = test: as above; conditions: 72 h
KAI3 (IL-2 2.5 ng/mL) [18] = test: as above; conditions: 72 h
KHYG-1 (IL-2 2.5 ng/mL) [19] = test: as above; conditions: 72 h
NK-92 (IL-2 2.5 ng/mL) [20] = test: as above; conditions: 72 h
NK-YS (IL-2 2.5 ng/mL) [21] = test: as above; conditions: 72 h
NKL (IL-2 2.5 ng/mL) [22] = test: as above; conditions: 72 h
SNK-6 (IL-2 2.5 ng/mL) [23] = test: as above; conditions: 72 h
YT (IL-2 2.5 ng/mL) [24] = test: as above; conditions: 72 h
[25] = test system: normal primary NK cells, pool 1 (3 donors) (IL-2 2.5 ng/mL); test: as above; conditions: 72 h
[26] = test system: normal primary NK cells, pool 1 (3 donors), resting (IL-2 0 ng/mL); test: as above; conditions: 72 h
[27] = test system: normal primary NK cells, pool 2 (3 donors) (IL-2 2.5 ng/mL); test: as above; conditions: 72 h
[28] = test system: normal primary NK cells, pool 3 (3 donors) (IL-2 2.5 ng/mL); test: as above; conditions: 72 h

O=C(CCCCCCC(=O)Nc1ccc([C@H]2O[C@@H](CSc3nc(-c4ccccc4)c(-c4ccccc4)o3)C[C@@H](c3ccc(CO)cc3)O2)cc1)NO [Tubacin] (max concentration tested 10000 nM)
percent inhibition of viability [%]
Conditions	1 nM	10 nM	100 nM	1000 nM	10000 nM
DERL-7 (IL-2 2.5 ng/mL) [2]	-2.36	4.2	7.74	19.8	86.6
IMC-1 (IL-2 20 ng/mL) [3]	-1.32	0.91	3.12	6.34	99
KAI3 (IL-2 2.5 ng/mL) [4]	-2.25	-0.51	-0.15	12	87.7
KHYG-1 (IL-2 2.5 ng/mL) [5]	-2.84	-3.16	1.24	0.88	84.9
NK-92 (IL-2 2.5 ng/mL) [6]	-7.58	4.48	12.8	18.2	74.3
NK-YS (IL-2 2.5 ng/mL) [7]	-6.18	-3.18	-0.57	4.16	93.2
NKL (IL-2 2.5 ng/mL) [8]	-14.5	-0.93	-1.27	28.3	86.2
SNK-6 (IL-2 2.5 ng/mL) [9]	-5.06	2.23	22.3	16.9	89.8
YT (IL-2 2.5 ng/mL) [10]	0.56	0.68	3.58	5.84	88.3
[1]	-0.3	4.86	3.67	7.82	40.4
[11]	2.38	1.13	3.02	-4.6	47.5
[12]	-6.72	-11.8	5.02	-11.8	77.7
[13]	-4.13	-4.61	0.44	0.6	24
[14]	-6.56	-3.63	5.33	-0.47	15.8

Conditions	drug sensitivity score
DERL-7 (IL-2 2.5 ng/mL) [16]	7.93
IMC-1 (IL-2 20 ng/mL) [17]	6.44
KAI3 (IL-2 2.5 ng/mL) [18]	6.87
KHYG-1 (IL-2 2.5 ng/mL) [19]	4.84
NK-92 (IL-2 2.5 ng/mL) [20]	6.62
NK-YS (IL-2 2.5 ng/mL) [21]	5.76
NKL (IL-2 2.5 ng/mL) [22]	8.82
SNK-6 (IL-2 2.5 ng/mL) [23]	7.71
YT (IL-2 2.5 ng/mL) [24]	5.78
[15]	3.3
[25]	2.14
[26]	3.59
[27]	0.95
[28]	0.27
